Assay results: EP0589069A1, “Hydroquinone derivatives and antioxidants and tumor inhibitors containing them” (NIPPON HYPOX LABORATORIES INCORPORATED, priority 1992, dated 1994)

How the values were obtained:
Salmonella TA 98 = experiment: Antimutagenic activity test on mutagenesis of heterocyclic amine to Salmonellae (preincubation Ames test with S9 mix); format: cell-based; conditions: mutagen IQ 0.005 µg; test compound 20.0 µg
Description: Compounds of the present invention were tested on their antimutagenic activity to heterocyclic amines of Glu-P-1·HCl, Trp-P-1 acetate and IQ by a preincubation method-applied Ames test according to the method of Diane et al (Diane F. Birt, et al., Carcinogenesis, Vol. 7, No. 6, 959-963, 1986).
That is, S9 mix (0.5 ml), 0.1 ml of a Salmonella TA 98 medium, a compound of the present invention dissolved in DMSO and 0.1 ml of one of the above mutagens were charged into a test tube, and cultured at 37°C for 20 minutes with shaking. Then, 2 ml of soft agar was added to, and mixed with, the contents in the test tube. The resultant mixture was spread over a minimal glucose agar medium, and cultured at 37°C for 48 hours, and the number of reverse mutation colonies. Two or three plates were prepared each dosage, and the test results were compared with the test result of a negative control group to which DMSO alone was added and the test result of a positive control group to which the corresponding mutagen alone was added. […]

[1] = system: lipid of rat liver microsome; experiment: Inhibition activity against hyperoxidation of lipid of rat liver microsome (thiobarbituric acid method); format: biochemical; conditions: for Inhibition ratio of lipid peroxidation (%): rat liver microsome, NADPH/ADP/FeCl₃, 37°C; for antioxidant activity (result in words on Table 2): summary of Table 2
Description: [Inhibition activity against hyperoxidation of lipid of rat liver microsome]
A plurality of male SD rats (weighing […]) were prepared. Each rat was anesthetized with pentobarbital, and then subjected to celiotomy. A cannula was introduced into the portal vein of each rat, the abdominal large veins were sectioned, and 500 ml of cold 0.9 % NaCl was injected into the portal veins.
Livers were extracted from individual rats, and the livers were cut to pieces in 1.15 % KCl and homogenized with ice cooling. Then, 1.15 % KCl was further added to obtain a 30 % liver homogenized solution.
The above homogenized solution was centrifugally separated at 8,000 g (g: gravitation acceleration) for 10 minutes, and the resultant supernatant was recovered.
The so-prepared suspension was stored at -20°C before a test described in the following (2), and it was used within 1 week after the preparation.
As test compounds, the hydroquinone derivatives obtained in Preparation Examples 1 to 12, a known hydroquinone derivative which was a compound of the formula (I) in which R¹ was methyl (hereinafter referred to as HQ1) and BHT were respectively tested on their inhibition activities against hyperoxidation of lipid in the following manner.
First, 0.1 ml of the liver microsome suspension obtained in the above (1), 0.1 ml of NADPH (final concentration 2 mM), 0.1 ml of ADP (final concentration 10 mM) and 0.1 ml of a solution of one of the test compounds whose concentration was adjusted as shown in Table 2 with 10 % DMF were added to a tris-HCl buffer (167 mM KCl, 74 mM TRIS, pH 7.4), and the resultant mixture was warmed at 37°C for 5 minutes. Then, 0.1 ml of FeCl₃ (final concentration 0.1 mM) was added, and the mixture was warmed at 37°C for 20 minutes.
The resultant reaction mixture was cooled with ice. Then, 0.2 ml of 8.1 % SDS, 1.5 ml of an acetic acid buffer (prepared by adjusting 20 % acetic acid containing 0.27 mM HCl to pH 3.5 with 10N NaOH) and 1.5 ml of 0.8 % thiobarbituric acid were added to the cooled reaction mixture, and the resultant mixture was warmed over a boiling water bath for 20 minutes. After the warming, the reaction mixture was cooled with ice, and 4 ml of an n-BuOH/pyridine mixed solution [n-BuOH:pyridine = 15:1 (volume ratio)] was added to the cooled reaction mixture. The mixture was vigorously stirred.
The reaction mixture was centrifugally separated at 2,000 rpm for 10 minutes, and the resultant supernatant was measured for an absorbance at 532 nm to determine a thiobarbituric acid reaction amount. And, on the basis of a calibration curve of […] (MDA) amount prepared by using 1,1,3,3-tetramethoxypropane, a peroxidized lipid amount was determined as an amount of formed MDA.
In Control, the solution of the test compound in 10 % DMF was replaced with 0.1 ml of a 10 % DMF solution, and the above procedures were repeated to determine a peroxidized lipid amount. In Blank, each of 0.1 ml of NDAPH, 0.1 ml of ADP and 0.1 ml of FeCl₃ were replaced with 0.1 ml of water, the solution of the test compound in 10 % DMF was replaced with 0.1 ml of a 10 % DMF solution, and the above procedures were repeated to determine a peroxidized lipid amount.
The inhibition ratio of the lipid peroxidation reaction was calculated on the basis of the following equation. Inhibition ratio (%) =[1-(OD₁-OD₃)/(OD₂-OD₃)] x 100 [formula] OD₁: Absorbance when test compound is added. OD₂: Absorbance of Control OD₃: Absorbance of Blank

[2] = test compound concentration 10⁻⁶M
[3] = test compound concentration 10⁻⁵M

Row | Substance | Mutagenesis inhibition ratio (Salmonella TA 98) | Inhibition ratio of lipid peroxidation (%) [1, 2] [%] | antioxidant activity (result in words on Table 2) [1] | Inhibition ratio of lipid peroxidation (%) [1, 3] [%]
1 | 1-butyl-2,3,5-trimethylhydroquinone [Preparation Example 3] | 85 | 75.9 | – | –
2 | 1-decylhydroquinone [Preparation Example 2] | – | 1.8 | excellent antioxidant activity over the known hydroquinone derivative HQ1 | 79.5
3 | 1-octylhydroquinone [Preparation Example 1] | – | 9.8 | excellent antioxidant activity over the known hydroquinone derivative HQ1 | 99.7
4 | 4-hexyl-2,3,5-trimethylhydroquinone [Preparation Example 8] | – | 40 | – | 98.3
